In patent publication US20130197073A1, “HYPOCHOLESTEROLEMIC, ANTI-INFLAMMATORY AND ANTIEPILEPTIC NEUROPROTECTIVE COMPOUND” (NEURON BIOPHARMA, S.A., priority 2010, published 2013):
Where two headings read alike, the source gives them in different places.

Columns and labels:
[1] = test system: human neuroblastoma SK-N-MC cells; assay: Protection against neuronal death induced by 3-nitropropionic acid (inhibition of succinate dehydrogenase), WST-1; type: cell-based; details: NST0060 at 40 μM; 30 μM 3-NP, 22 hours; significant in the range of 4 to 40 μM
Method: (§1) The assay was performed on human neuroblastoma SK-N-MC cells in culture, maintained as described in section 2.1.
The inhibition caused by compound NST0060 with respect to cell death caused by treatment with 3-nitropropionic (3-NP) acid was analyzed. 3-NP is an irreversible inhibitor of the succinate dehydrogenase enzyme which in animal models causes oxidative stress and apoptotic cell death in the striatum and mimics neurochemical and anatomical changes associated with Huntington's disease (HD). These cells, not exceeding 15 passages, were seeded on 96-well plates treated for adherent cells with a cell concentration of 5×10^4 cells/well; 3 wells of the plate were seeded for each assay condition.
After 24 hours of cell incubation (at 37° C. and 5% CO2), the cell treatments were performed with 100 μl of total volume for the following conditions: • Control: culture medium (medium) • 3-Nitropropionic (3-NP): medium plus 30 μM 3-NP, causing death of 50% of the cells. • 3-NP plus NST0060: medium plus 3-NP (30 μM) plus NST0060 at 1, 4, 10, 40 or 100 μM.
The cells were incubated (at 37° C. and 5% CO2) with these treatments for 22 hours, after which time WST-1 reagent (Roche) was added. The WST-1 test is based on the measurement of metabolic activity (method described in section 2.1).

[2] = test system: seladin-1/DHCR24 gene; assay: Induction of seladin-1/DHCR24 gene expression, quantitative RT-PCR; type: cell-based, human; details: 4 μM, 24 hours, GAPDH-normalized; increase at all tested concentrations (1, 4, 10, 40 μM)
Method: The assay was performed on human neuroblastoma SK-N-MC cells in culture from the American Type Culture Collection (ATCC), in all cases strict rules of sterility were followed and the manipulation was performed in class II biological safety cabinets following European standard EN 12469. The cells were maintained in the following culture medium: Minimum Essential Medium Eagle (MEM) supplemented with 1 mM sodium pyruvate, 2 mM L-glutamine, 0.1 mM non-essential amino acids, 0.05 mg/ml gentamicin and 10% fetal bovine serum.
Real-time quantitative RT-PCR was used to analyze the expression of the seladin-1/DHCR24 gene. The SK-N-MC cells were treated for 24 hours in the absence (control) or presence of NST0060 at 1, 4, 10 or 40 μM. The total RNA was extracted by means of the High Pure RNA Isolation kit (Roche) and the RNA amount and quality were analyzed by means of spectrophotometry in the Infinite 200 NanoQuant system (Tecan). The RT-PCR was performed by means of two steps, first, the mRNA was transformed to cDNA using the RNA to cDNA kit (Applied Biosystem) and the gene expression was subsequently analyzed by means of TaqMan probes using the validated probes Hs00207388_m1 for seladin-1/DHCR24 and Hs99999905_m1 for GAPDH (used to normalize the results), both of which are human-specific, in the 7500 Fast Real-Time PCR System equipment (Applied Biosystem). […]

[3] = test system: zebrafish (Danio rerio, AB strain) embryos; details: in vivo
Method: The study of this parameter (cardiotoxicity) not only determines the heart rate of the animals but also it allows determining heart beat alterations (tachycardia, bradycardia, etc.) or heart development anomalies (pericarditis, atrophy, hypertrophy, etc.).
The determination of the heart rate of the zebrafish embryos or larvae is performed visually. The heart beat (with the help of a manual counter) is counted for a period of 15 seconds by means of a magnifying glass (magnifications of 4-40×). The heartbeat of 12 of the 30 animals used per treatment in total is counted. The number of beats obtained is multiplied by 4 to obtain the number of heart beats per minute of the animal.

[4] = test system: FVB/NHan mice; assay: Kainate (KA) model of epilepsy in mice, convulsions, status epilepticus, latency, Racine scale; type: in vivo
Method: All the animals included during the experimental process were 12-week old males from the FVB/NHan strain. The experiments were carried out strictly complying with the standard entitled Guidance on the Operation of Animals (Scientific Procedures, Act. 1986). The animals were subjected to their respective quarantine period and were treated with maximum precaution to minimize possible contaminations during inoculations and handling.
The animals were intraperitoneally inoculated with 25 mg/kg of kainate (KA) dissolved in PBS. Fourteen animals were pretreated at 24 and 0.5 hours before inoculation with KA by means of intraperitoneal injection with 0.25% methyl cellulose in PBS (vehicle+KA administration regimen), and 14 were pretreated at 24 and 0.5 hours before inoculation with KA by means of intraperitoneal injection with compound NST0060 at a dose of 50 mg/kg (NST0060+KA administration regimen). After inoculation, the animals were individually housed in trays to monitor them. The maximum level of epilepsy of the animals was recorded during the observation according to the Racine scale every ten minutes and for at least 120 minutes post-inoculation (m.p.i.).

[5] = test system: caspase 3/7; assay: Inhibition of activation of caspase 3/7 in camptothecin cell model of apoptosis; type: cell-based, human; details: Homo sapiens, 50 μM CPT 6 hours, read-out: inhibition of caspase 3/7 with respect to camptothecin
Method: as §1
The induction of apoptosis on the cells in culture was performed with camptothecin (CPT), which triggers the activation of cell apoptosis. Apoptosis was quantified by means of the measurement of the activation of effector caspases, caspase 3 or caspase 7, for which a kit for the fluorometric detection of active caspase 3/7 (Apo-ONE® Homogeneous Caspase-3/7, Promega) was used. Active caspases 3 or 7 of the cells cause the rupture of a substrate, which leads to fluorescence emission, which is read by means of a fluorometer. The effect of the pretreatment of compound NST0060 at 10 and 40 μM on the activation of caspase 3/7 produced by 50 μM of camptothecin (CPT) in the SK-N-MC cells was thus analyzed. These cells, not exceeding 15 passages, were seeded on 96-well plates treated for adherent cells with a cell concentration of 5×10^4 cells/well; 3 wells of the plate were seeded for each assay condition.
After 24 hours of cell incubation (at 37° C. and 5% CO2), the pretreatment with NST0060 at 10 and 40 μM was performed.
The cells were incubated (at 37° C. and 5% CO2) with these treatments for 6 hours, after which cell lysis buffer and the caspase substrate at the concentrations specified by the manufacturer were added; it was incubated at room temperature for 30 minutes and then frozen at −20° C. overnight. Fluorescence was measured the next day (499/521 nm, Exci/Emi).

[6] = test system: zebrafish (Danio rerio, AB strain) embryos; assay: Zebrafish embryo acute toxicity, mortality (OECD C.15); type: in vivo; details: for Mortality (dead larvae with respect to the total): 3 days
Method: 30 control animals treated with dilution water and with daily replacement until the end of the assay.
30 animals treated with compound NST0060 (3 embryos for every ten replicates) diluted in dilution water at doses between 1 and 100 mg/Kg and with daily replacement of the substance during the days that the assay lasted.
After the time of exposure to the substances under study, the mortality record of the larvae was determined, results being shown in Table 2.

With CCCC(CCC)C(=O)O[C@H]1C[C@@H](C)C=C2C=C[C@H](C)[C@H](CC[C@@H]3C[C@@H](O)CC(=O)O3)[C@H]21 [NST0060, 2-propylpentanoic acid (1S,3R,7S,8S,8aR)-1,2,3,7,8,8a-hexahydro-3,7-dimethyl-8-[2-[(2R,4R)-tetrahydro-4-hydroxy-6-oxo-2H-pyran-2-yl]ethyl]-1-naphthalenyl ester] the “protection against cell death caused by 3-NP” value [1] was 32%, the “increase of seladin-1/DHCR24 gene expression with respect to the control” value [2] was 2.5 fold and the “heart rate with respect to the controls” value ([3]; AB, zebrafish (Danio rerio), 3 mg/kg, 72 h) was “not at the dose of 3 mg/Kg”. The “heart rate with respect to the controls” value ([3]; 10 mg/kg) was “decrease of the heart rate is detected”, the “Status epilepticus, percentage of animals with tonic-clonic seizures lasting at least 30 minutes” value ([4]; 50 mg/kg i.p. at 24 and 0.5 hours before KA 25 mg/kg i.p., vehicle+KA 79%) was 29% and the “Convulsions, percentage of animals with tonic-clonic seizures” value ([4]; 50 mg/kg i.p. at 24 and 0.5 hours before KA 25 mg/kg i.p., vehicle+KA 93%) was 36%. The “latency (time when the first convulsions occurred)” value ([4]; 50 mg/kg i.p. at 24 and 0.5 hours before KA 25 mg/kg, mean±SEM, vehicle+KA 45.7±7.5) was 100.1 ± 7.3 min, the “mean level of epilepsy on the Racine scale” value ([4]; 50 mg/kg i.p., two hours after KA, vehicle+KA above 4) was ≤ 3 and the inhibition at 10 µM ([5]; pretreatment 24 h at 10 μM) was 58%. For the same compound, the inhibition at 40 µM ([5]; pretreatment 24 h at 40 μM) was 32%, the “Mortality (dead larvae with respect to the total)” value (“Mortality” below) ([6]; Dose 1 mg/kg) was 0/30 and the “Mortality” value ([6]; Dose 3 mg/kg) was 0/30. The “Mortality” value ([6]; Dose 10 mg/kg) was 7/30, the “Mortality” value ([6]; Dose 30 mg/kg) was 30/30 and the “Mortality” value ([6]; Dose 100 mg/kg) was 30/30. The “deaths out of 30 animals” value ([6]; dose of 10 mg/Kg, 72 h) was 7.
